{"source": "patent US10730875B2", "about": "“Substituted imidazo[1,2-A]pyridin-2-ylamine compounds, and pharmaceutical compositions and methods of use thereof” (JN Therapeutics, priority 2015, dated 2020)", "key": {"JAK1": {"biological_target": "JAK1 (Homo sapiens (Human), UniProt P23458)", "sequence (P23458 whole entry)": "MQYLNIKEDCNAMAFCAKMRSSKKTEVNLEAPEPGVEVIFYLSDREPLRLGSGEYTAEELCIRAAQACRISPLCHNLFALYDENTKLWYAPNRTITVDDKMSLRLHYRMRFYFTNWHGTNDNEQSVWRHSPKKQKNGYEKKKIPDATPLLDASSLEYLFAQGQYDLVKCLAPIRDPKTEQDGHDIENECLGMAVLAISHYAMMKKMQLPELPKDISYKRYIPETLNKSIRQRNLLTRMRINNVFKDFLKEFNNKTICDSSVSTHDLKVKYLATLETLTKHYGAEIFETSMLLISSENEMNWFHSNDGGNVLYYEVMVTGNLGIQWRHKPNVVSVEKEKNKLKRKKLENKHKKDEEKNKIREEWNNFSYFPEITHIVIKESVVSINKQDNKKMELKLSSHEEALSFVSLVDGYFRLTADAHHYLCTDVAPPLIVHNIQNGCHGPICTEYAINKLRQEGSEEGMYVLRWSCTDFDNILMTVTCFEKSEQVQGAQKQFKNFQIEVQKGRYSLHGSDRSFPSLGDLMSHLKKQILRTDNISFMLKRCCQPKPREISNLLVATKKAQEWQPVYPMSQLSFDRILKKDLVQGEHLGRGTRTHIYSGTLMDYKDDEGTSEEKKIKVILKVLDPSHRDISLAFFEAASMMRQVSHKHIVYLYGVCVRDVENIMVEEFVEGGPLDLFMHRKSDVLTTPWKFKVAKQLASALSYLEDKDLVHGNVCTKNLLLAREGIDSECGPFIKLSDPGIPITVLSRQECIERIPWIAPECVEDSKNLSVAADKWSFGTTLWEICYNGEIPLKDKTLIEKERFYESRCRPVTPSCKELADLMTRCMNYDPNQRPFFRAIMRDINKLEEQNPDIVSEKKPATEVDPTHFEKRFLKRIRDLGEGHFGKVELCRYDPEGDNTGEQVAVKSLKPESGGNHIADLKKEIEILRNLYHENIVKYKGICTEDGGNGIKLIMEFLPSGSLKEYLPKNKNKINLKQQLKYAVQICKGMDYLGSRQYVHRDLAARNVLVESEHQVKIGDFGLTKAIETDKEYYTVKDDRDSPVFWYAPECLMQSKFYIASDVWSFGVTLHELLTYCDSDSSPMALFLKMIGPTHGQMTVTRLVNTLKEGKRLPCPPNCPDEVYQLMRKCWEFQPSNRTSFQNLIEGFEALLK", "experiment": "Cellular JAK1 assay: IL-6-mediated STAT3 phosphorylation in TF-1 cells", "format": "cell-based", "conditions": "IL-6 stimulation, STAT3 phosphorylation at Tyr705 (AlphaLISA), read-out: Inhibitory Activity Against JAK1 IC50", "experimental": "The cellular potency of a compound on JAK1 or JAK2 inhibition is determined by measuring the cytokine-mediated phosphorylation of STAT proteins in TF-1 cells.\nHuman cytokines of IL-6 (R&D Systems, Cat. No. 206-IL-010/CF) and GM-CSF (R&D Systems, Cat. No. 215-GM-010/CF) are reconstituted at 10 μg/mL in D-PBS containing 0.1% BSA (Sigma, Cat. No. A8577) and human EPO (R&D Systems, Cat. No. 287-TC-500) at 500 U/mL in D-PBS containing 0.1% BSA. TF-1 cells (ATCC, CRL-2003) were grown in RPMI1640 (ATCC, Cat. No. 30-2001) supplemented with 2 ng/mL of recombinant human GM-CSF, 10% FBS (Gibco, Cat. No. 10437-028), and 100 U/mL penicillin-streptomycin (Gibco, Cat. No. 15140-122). The cells were maintained and propagated between 1×10^5 cells/mL to 7.5×10^5 cells/mL. Aliquots of the cells from early passages were preserved for liquid nitrogen storage. Frozen vials of the cells were thawed at 37° C. water bath. The cells were spun to remove freezing medium. The newly revived frozen cells were adapted in culture for 5-7 days before used for compound testing. The cells used in for compound testing were less than 20 subculture passages or 3 months in culture.\nTo test compounds, the TF-1 cells were harvested at a density of 3 to 7×10^5 cells/mL by centrifugation. After removing the culture medium, the resulting cell pellet was suspended and washed once by centrifugation with HBSS buffer (Gibco, Cat. No. 14025-092) containing 0.1% BSA. The cell pellet was resuspended in HBSS buffer at 7.5×10^6 cells/mL. Four micro-liters of the cells (3×10^4 cells in total) were added to each well of a white 384-well plate (Packard, Cat. No. 6005214).\nThe compounds were first diluted in dimethylsulfoxide (DMSO) (Sigma, Cat. No. D2650) to generate 9 3-fold diluted dosing concentrations in a 96-well polypropylene plate (Corning, Cat. No. 3365), followed by addition of HBSS buffer for another 125-fold dilution. To the cells, 2 μL of the diluted compounds were added and mixed by tapping the plate several times. The cells were incubated for 2 hrs of treatment. DMSO was used as a control and similarly diluted along and added to the cells.\nTo assay JAK1 inhibition, 2 μL of IL-6 diluted at 400 ng/mL (4×) in HBSS containing 0.1% BSA was added to the treated cells. The cells were then incubated for 30 min of cytokine treatment and lysed at the end by addition of 2 μL of 5×AlphaLISA SureFire Ultra lysis buffer from Perkin Elmer. The plate was agitated on a plate shaker for 10 min at room temperature. The cellular JAK1 activity was determined by measuring STAT3 phosphorylation at Tyr705 in lysates using the AlphaLISA SureFire Ultra kit (Perkin Elmer, Cat. No. ALSU-PST3-A500). A volume of 5 μL of acceptor mix and donor mix was added sequentially to lysates following the product protocol. The assay signals were recorded on EnVision plate reader (Perkin Elmer) with AlphaScreen optics setting.\nThe results are summarized in Table 3, where A represents a value no greater than 500 nM, B represents a value greater than 500 nM but no greater than 1 μM, C represents a value greater than 1 μM but no greater than 5 μM, and D represents a value greater than 5 μM."}, "[1]": {"experiment": "Pharmacokinetics in Sprague-Dawley rats (HPLC-MS/MS of plasma)", "format": "in vivo", "conditions": "rat", "experimental": "The PK parameters of compound 14 were determined in Sprague-Dawley rats (Hubei Provincial Laboratory Animal Research Center) after a single oral (p.o) and intravenous (i.v.) administration using HPLC-MS/MS (Shimadzu LC-20ACXR HPLC coupled with AB Sciex API 4500 Qtrap).\nA sensitive and specific HPLC-MS/MS method was developed for the determination of the compound in rat plasma. Multiple reaction monitoring (MRM) mode was used for the quantification of the compound by monitoring the ion transitions at m/z from 443.1 to 375.1. Compound 2 was used as an internal standard and monitored by the ion transition at m/z from 427.1 to 357.1. Calibration curves were constructed in the range of 1.00-1000 ng/mL in rat plasma extract by a 1/×2 weighted quadratic regression. The regression coefficients obtained were greater than 0.99 and back calculated values comprised in the range of ±15% from their nominal concentration.\nFor the intravenous administration, the compound was dissolved in 25% PEG200 in saline and intravenously administrated at a single dose of 1.00 mg/kg. For the oral administration, the compound was suspended in 0.5% sodium carboxymethylcellulose (CMC-Na) solution and intragastrically administrated at a single dose of 5.00 mg/kg. Approximately 0.200 mL of blood sample were collected from orbital venous plexus at 0 (predose), 0.25, 0.5, 1, 2, 4, 8, 12 and 24 hrs post dosing. All samples were placed into EDTA-K2-treated tubes and centrifuged at 3,500 rpm at 4° C. for 10 min to separate the plasma fractions. The plasma samples were stored at −20° C. prior to analysis. The plasma samples were analyzed with the HPLC-MS/MS method."}, "[2]": {"conditions": "Sprague-Dawley, plasma, IV, single dose 1.00 mg/kg"}, "[3]": {"conditions": "Sprague-Dawley, plasma, PO, single dose 5.00 mg/kg"}}}
{"smiles": "O=C(Nc1cn2c(-c3ccc(CN4CCS(=O)(=O)CC4)cc3F)cccc2n1)C1CC1", "note": "[Compound 14]", "values": [{"measurement": "IC50", "setting": "JAK1", "result": "≤ 500", "unit": "nM"}, {"measurement": "F", "setting": "[1]; PO, single dose 5.00 mg/kg", "result": "46.7 ± 7.3", "unit": "%"}, {"measurement": "AUC(0-t)", "setting": "[1]; [2]", "result": "677 ± 122", "unit": "ng·h/mL"}, {"measurement": "MRT", "setting": "[1]; [2]", "result": "1.4 ± 0.2", "unit": "h"}, {"measurement": "clearance", "setting": "[1]; [2]", "result": 24.8, "unit": "mL/min/kg"}, {"measurement": "half-life", "setting": "[1]; [2]", "result": "1.4 ± 0.3", "unit": "h"}, {"measurement": "Vd", "setting": "[1]; Sprague-Dawley, plasma, IV, single dose 1.00 mg/kg, read-out: Vz", "result": "2.98 ± 0.912", "unit": "L/kg"}, {"measurement": "AUC(0-t)", "setting": "[1]; [3]", "result": "1590 ± 253", "unit": "ng·h/mL"}, {"measurement": "Cmax", "setting": "[1]; [3]", "result": "571 ± 190", "unit": "ng/mL"}, {"measurement": "MRT", "setting": "[1]; [3]", "result": "2.3 ± 0.4", "unit": "h"}, {"measurement": "Tmax", "setting": "[1]; [3]", "result": "0.63 ± 0.25", "unit": "h"}, {"measurement": "half-life", "setting": "[1]; [3]", "result": "1.9 ± 0.3", "unit": "h"}]}
